Assay results from patent publication US10716769B2 (GUANGZHOU JTREAT BIOSCI. LTD., priority 2015, dated 2020).
pIC50: −log10 of the molar value. In brackets after ≈: the same amount, converted by molar mass. Read-outs that look alike come from different tables or passages of the source.

Tests used:
HIV-1 integrase = target: T1, HIV-1 integrase (Human immunodeficiency virus type 1 group M subtype B, UniProt P04585); assay: Test of sample inhibition to HIV-1 integrase (ELISA, strand transfer); assay type: biochemical; details: for inhibition at 109 µg/mL: read-out: IC50 (HIV-1 IN inhibition), dash
T1 construct: purified HIV-1 integrase is added to donor substrates coated 96-well plate; made in house
Method: The half-inhibitory concentration IC50 for 3′ excision of the substrate and the strand transfer is in the range of 88.92-10.20 μg/ml, in which the best inhibitory activity of the compound is higher than that of the monomer compound of hydroxybenzoic acid. The mechanism of the HIV-1 integrase is a two-step reaction: 1) 3′ Processing: the integrase binds to the specific sequences of the long terminal repeat region (LTR) of the proviral DNA to form a stable complex, then the endonucleotides of 3′ end of nucleoside is processed, and the GT dinucleotide of the sequence . . . […] Thus, the activity of the integrase inhibitor is embodied in inhibiting the excision of the 3′end of the viral DNA or the strand transfer, and is represented by a half-inhibitory concentration IC50.
In vitro integrase test, 30 synthetic oligonucleotides are used as donor substrates, 20 synthetic oligonucleotides are used as target substrates. Purified HIV-1 integrase is added to donor substrates coated 96-well plate, ELISA reaction is performed, the product of the strand transfer of target DNA is detected, color development is conducted by biotin-labeled alkaline phosphatase system, and the microplate reader is used to measure the OD value.
First, inhibitors of the enzyme may be screened by adding a sample to the reaction system. Before use, the sample is prepared with DMSO to an appropriate concentration, and then is diluted 5 times at 4 dilutions. The sample after dilution is added into the donor substrate coated 96-well plate, and then added to the reaction Buffer containing the genetically engineered target enzyme and the biotin-target substrate, incubated under optimal reaction conditions, and colored by biotin-labeled alkaline phosphatase system, and the OD value for absorbance value at 405 nm is measured.
30 synthetic oligonucleotides are used as donor substrates, 20 synthetic oligonucleotides are used as target substrates, purified HIV-1 integrase is added to donor substrates coated 96-well plate, ELISA reaction is performed, the product of the strand transfer of target DNA is detected, color development is conducted by biotin-labeled alkaline phosphatase system, and the OD value is measured by a microplate reader. The addition of samples to the reaction system can be used to screen inhibitors for the enzyme.
1. HIV-1 IN: it is extracted and saved by Chinese National New Drug Screening Center and Institute of Pharmaceutical Biotechnology under Chinese Academy of Medical Sciences.
2. Sample Treatment: 10 samples A1-A10 dissolved into DMSO prior to use are prepared into suitable concentrations, and then diluted 5 times at 4 dilutions. Donor substrate and target substrate are from Shanghai Biochemical Synthesis.
3. Method for Test: the samples after dilution are added into the donor substrate coated 96-well plate, then added to the reaction Buffer containing the genetically engineered target enzyme and the biotin-target substrate, incubated under optimal reaction conditions, and colored by biotin-labeled alkaline phosphatase system, and the OD value for absorbance value at 405 nm is measured.

HPV 6/11 Virus = assay: HPV detection via fluorescence quantitative PCR in genital warts tissue homogenate; parameters: species or system human papillomavirus; details: for HPV 6/11 virus detection, in words: 24 hours after addition into the tissue homogenate of genital warts; for HPV 6/11 Virus: genital warts tissue homogenate, 37° C., 24 hours, FQ-PCR
Excerpt: (§1) The aforesaid compounds and/or compositions containing the same are effective in killing and inhibiting HPV type 6/11 and type 16/18, which can be used for the preparation of drugs for preventing and treating viral infection of HPV, preventing and treating genital warts, flat warts, common warts, vaginitis, cervicitis and cervical erosion, cervical cancer, esophageal cancer and other cancers caused by HPV. The present invention observes the effect of active ingredients and products by the detection of the change in the amount of the HPV virus through the real-time quantitative PCR. Such method has been applied in several publications (Youling C A I, et al., Chinese STD/AIDS, 2002, 8: 2,108; Yuansheng W U, Ruijiang F A N, et al., Practical Application of Integrated Chinese and Western Medicine in Clinics, 2003, 3: 2,1).
(§2) The microemulsion obtained in example 1 is used as a test sample and saline for blank control.
(§3) The standard clinical genital warts specimens from a variety of patients after being cut off are washed with saline for removing bloods, and are cut into pieces under aseptic conditions, added with saline in 3 times of their volumes to be uniformly mixed, grinded into homogenate and placed at −40° C. for use.
(§4) Each test sample drug microemulsion and the saline of 50 μl for each are respectively added with 50 μl the genital warts tissue homogenate, and incubated at 37° C. for 24 hours; tests are performed according to the operation procedure provided by the HPV6, 11 and 16, 18 type FQ-PCR diagnostic kits provided by Da'an Gene Diagnostic Center. 0.2 ml of DNA extracted by the conventional alkaline lysis method is put into the thin-walled reaction tube, and simultaneously added with primers, F-PROBE, DNTP, DNA polymerase, buffers and the like in a certain concentration; ABI PRISM™ 7700 fluorescence quantitative PCR amplifier is used to repeat 40 circulations each with 45 s at 93° C. and 120 s at 55° C. after predegeneration at 93° C. for 2 mins; the quantitative results are automatically analyzed by the computer software to calculate the quantitative results of the initial copy number. The data are shown in Table 2 (completed by Da'an Gene Clinical Test Center).

HPV16/18 = assay: as above; parameters: species or system human papillomavirus; details: for HPV16/18 virus detection, in words: 24 hours after addition into the tissue homogenate of genital warts; for HPV16/18: genital warts tissue homogenate, 37° C., 24 hours, FQ-PCR
Excerpt: as §1, §2, §3, §4

HSV-I, VR733 strain = assay: Inhibition of cytopathic effects of Vero cells caused by herpes virus type I; assay type: cell-based; details: for IC50: read-out: IC50 Against HSV-1
Excerpt: (§5) Vero cells (kidney cells of African green monkey) are used as viral hosts to test the inhibition degree of the samples to the cytopathic effects of Vero cells caused by herpes virus type I and type II.
(§6) Vero cells (kidney cells of African green monkey) are used as viral hosts to test the inhibition degree of the samples to cytopathic effects of the Vero cell caused by herpes virus type I and type II.
(§7) 1. Virus strains: HSV-I, VR733 strain, and HSV-II, SAV strain, which both are provided by ATCC.
(§8) 2. Sample treatment: the sample is dissolved in DMSO at an appropriate concentration before use, and diluted with the culture medium 3 times at a total of 8 dilutions for test.
(§9) 3. Positive control drug: acyclovir (ACV) produced by the Hubei Ke Yi pharmaceutical factory.

HSV-II, SAV strain = assay: Inhibition of cytopathic effects of Vero cells caused by herpes virus type II; assay type: cell-based; details: for IC50: read-out: IC50 Against HSV-II
Excerpt: as §5, §6, §7, §8, §9

Vero cells = assay: Half toxic concentration in the anti-herpes screening; assay type: cell-based, African green monkey
Method: Vero cells (kidney cells of African green monkey) are used as viral hosts to test the inhibition degree of the samples to cytopathic effects of the Vero cell caused by herpes virus type I and type II. 2. Sample treatment: the sample is dissolved in DMSO at an appropriate concentration before use, and diluted with the culture medium 3 times at a total of 8 dilutions for test. 4.

[1] = Vero cells, CPE 48 hours, Reed-Muench

For `O=C(c1ccccc1O)c1cccc(O)c1O` [2,2′3′-trihydroxybenzophenone], the pIC50 (HIV-1 integrase) was 4.34, the “HPV 6/11 virus detection, in words” value (HPV 6/11 Virus) was “can no longer be detected” and the “HPV 6/11 Virus” value (HPV 6/11 Virus) was 0 copy/ml. For the same compound, the “HPV16/18 virus detection, in words” value (HPV16/18) was “can no longer be detected” and the HPV16/18 (HPV16/18) was 0 copy/ml.
With `O=C(c1ccccc1O)c1ccccc1O` [2,2′-dihydroxybenzophenone] the pIC50 (HIV-1 integrase) was 4.15, the “HPV 6/11 virus detection, in words” value (HPV 6/11 Virus) was “can no longer be detected” and the “HPV 6/11 Virus” value (HPV 6/11 Virus) was 0 copy/ml. The “HPV16/18 virus detection, in words” value (HPV16/18) was “can no longer be detected”, the HPV16/18 (HPV16/18) was 0 copy/ml and the IC50 (HSV-I, VR733 strain; Human alphaherpesvirus 1, Vero, 48 h) was 28.7 µg/mL (≈ 134 µM). The IC50 (HSV-II, SAV strain; Human alphaherpesvirus 2, Vero, 48 h) was 28.7 µg/mL (≈ 134 µM) and the “TC50 half toxic concentration” value (Vero cells) was 64.15 µg/mL (≈ 299 µM).
`O=C(c1ccc(O)cc1O)c1cc(O)c(O)c(O)c1O` [2,3,4,2′,4′,5-hexahydroxybenzophenone] was tested, and the “IC50 Against HSV-1” value (HSV-I, VR733 strain; [1]) was 28.74 µg/mL (≈ 103 µM) and the “IC50 Against HSV-II” value (HSV-II, SAV strain; [1]) was 28.74 µg/mL (≈ 103 µM).
For `O=C(O)c1cccc(O)c1O` [2,3-dihydroxybenzoic acid, reference compound], the inhibition at 109 µg/mL (HIV-1 integrase) was under 50%, the “HPV 6/11 virus detection, in words” value (HPV 6/11 Virus) was “have a high concentration” and the “HPV 6/11 Virus” value (HPV 6/11 Virus) was 2.30 × 10^4 copy/ml. The “HPV16/18 virus detection, in words” value (HPV16/18) was “have a high concentration” and the HPV16/18 (HPV16/18) was 3.20 × 10^3 copy/ml.
With `O=C(O)c1cc(O)c(O)c(O)c1` [3,4,5-trihydroxybenzoic acid, reference compound] the pIC50 (HIV-1 integrase) was 3.23, the “HPV 6/11 Virus” value (HPV 6/11 Virus) was 0 copy/ml and the HPV16/18 (HPV16/18) was 0 copy/ml.
`O=C(O)c1ccc(O)c(O)c1` [3,4-dihydroxybenzoic acid, reference compound] was tested, and the inhibition at 109 µg/mL (HIV-1 integrase) was under 50%, the “HPV 6/11 virus detection, in words” value (HPV 6/11 Virus) was “have a high concentration” and the “HPV 6/11 Virus” value (HPV 6/11 Virus) was 1.90 × 10^4 copy/ml. For the same compound, the “HPV16/18 virus detection, in words” value (HPV16/18) was “have a high concentration” and the HPV16/18 (HPV16/18) was 8.50 × 10^4 copy/ml.
Work on `Nc1nc2c(ncn2COCCO)c(=O)[nH]1` [ACV, acyclovir, reference compound] yielded an IC50 (HSV-I, VR733 strain; Human alphaherpesvirus 1, Vero cells, CPE 48 hours, Reed-Muench) of 1.09 µg/mL (≈ 4.85 µM) and an IC50 (HSV-II, SAV strain; Human alphaherpesvirus 2, Vero cells, CPE 48 hours, Reed-Muench) of 1.23 µg/mL (≈ 5.46 µM).
